Source: ChEMBL document CHEMBL1201862, “PubChem BioAssay data set” (2004)
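Growth conditions: 96-well plates. Treatment: test compound, 48 hours, 5 concentrations. Analysis: linear interpolation between bracketing concentrations; unreached endpoints set to highest concentration. Here, GI50 denotes the concentration required for 50% inhibition of growth.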 Active and inactive are the calls of the source. Cut-off read from the data, not from the text of the source: active = GI50 up to about 1.1 µM and inactive = higher.

Experiments:
Assay in all cases: NCI-60 cell line screen, 48 h
SF-268 = system: SF-268
SW-620 = system: SW-620
Malme-3M = system: Malme-3M
PC-3 = system: PC-3
A549 = system: A549
BT-549 = system: BT-549
LOX IMVI = system: LOX IMVI
U-251 = system: U-251
MOLT-4 = system: MOLT-4
UO-31 = system: UO-31
SK-MEL-2 = system: SK-MEL-2
MDA-MB-435 = system: MDA-MB-435
K562 = system: K562
NCI-H460 = system: NCI-H460
OVCAR-5 = system: OVCAR-5
CAKI-1 = system: CAKI-1
SN12C = system: SN12C
HL-60 = system: HL-60
HOP-92 = system: HOP-92
SNB-75 = system: SNB-75

Measured: GI50

Nc1ccc(Oc2ccc(C3(c4ccc(Oc5ccc(N)c(O)c5)cc4)C4CC5C6CC7CC5C3C(C7)C6C4)cc2)cc1O
inactive: SF-268 2.72 µM | SW-620 2.18 µM | Malme-3M 3.23 µM | PC-3 1.86 µM | A549 1.56 µM | BT-549 4.15 µM | LOX IMVI 2.1 µM | U-251 1.81 µM | MOLT-4 2.07 µM | UO-31 2.04 µM | SK-MEL-2 2.36 µM | MDA-MB-435 1.53 µM | K562 2.19 µM | NCI-H460 2.41 µM | OVCAR-5 1.31 µM | CAKI-1 2.49 µM | SN12C 1.55 µM | HL-60 2.44 µM | HOP-92 1.77 µM

C/C(=N\O)c1cccc(Nc2c3ccccc3nc3occc23)c1
inactive: SF-268 13.3 µM | Malme-3M 2.86 µM | PC-3 17.7 µM | A549 4.93 µM | BT-549 3.29 µM | LOX IMVI 5.78 µM | U-251 13.6 µM | MOLT-4 4.25 µM | UO-31 7.18 µM | SK-MEL-2 4.18 µM | MDA-MB-435 2.24 µM | K562 3.58 µM | NCI-H460 5.15 µM | OVCAR-5 48 µM | CAKI-1 1.96 µM | SN12C 11.8 µM | HL-60 4.74 µM | HOP-92 7.24 µM

Cn1c2ccccc2c(=O)c2c(O)cc3c(c21)C=CC1(CCCCC1)O3
inactive: SF-268 > 10 µM | SW-620 > 10 µM | Malme-3M > 10 µM | PC-3 > 10 µM | A549 > 10 µM | BT-549 2.08 µM | LOX IMVI > 10 µM | U-251 > 10 µM | MOLT-4 > 10 µM | UO-31 > 10 µM | SK-MEL-2 > 10 µM | MDA-MB-435 > 10 µM | K562 4.5 µM | NCI-H460 > 10 µM | OVCAR-5 7.18 µM | SNB-75 > 10 µM | CAKI-1 > 10 µM | SN12C > 10 µM | HOP-92 > 10 µM

COC1Cc2c(C)c(OC(C)=O)c3cccnc3c2O1 (configuration not stated)
inactive: SF-268 16 µM | SW-620 13.5 µM | Malme-3M 13.8 µM | PC-3 36.7 µM | A549 17.3 µM | BT-549 19.7 µM | U-251 37.2 µM | MOLT-4 13.8 µM | UO-31 13.9 µM | SK-MEL-2 13.9 µM | MDA-MB-435 17.6 µM | K562 22.2 µM | NCI-H460 25.4 µM | OVCAR-5 18.2 µM | SNB-75 17.4 µM | CAKI-1 > 100 µM | SN12C 18.5 µM | HL-60 6.79 µM | HOP-92 18.6 µM

CCOC(=O)N1CCN(c2nc(C)n(-c3ccccc3)c(=S)c2C#N)CC1
inactive: SF-268 63.1 µM | SW-620 > 63.4 µM | PC-3 > 43.4 µM | A549 97.9 µM | BT-549 > 51.9 µM | LOX IMVI > 61.9 µM | U-251 75.3 µM | MOLT-4 > 40.1 µM | UO-31 > 48 µM | SK-MEL-2 > 76.4 µM | MDA-MB-435 > 74.6 µM | K562 > 50 µM | NCI-H460 52.7 µM | OVCAR-5 > 100 µM | SNB-75 37.2 µM | CAKI-1 > 66.4 µM | SN12C > 100 µM | HL-60 > 28.7 µM | HOP-92 > 65.9 µM

Oc1[nH]c(NCc2ccc(Cl)cc2)nc2ncnc1-2
inactive: SF-268 > 100 µM | SW-620 > 100 µM | Malme-3M > 100 µM | PC-3 > 100 µM | A549 > 100 µM | BT-549 > 100 µM | LOX IMVI > 100 µM | U-251 > 100 µM | MOLT-4 > 100 µM | UO-31 > 100 µM | SK-MEL-2 > 100 µM | MDA-MB-435 > 100 µM | K562 > 100 µM | NCI-H460 > 100 µM | OVCAR-5 > 100 µM | SNB-75 > 100 µM | CAKI-1 > 100 µM | SN12C > 100 µM | HOP-92 > 100 µM

OC1(c2ccc(Cl)cc2)c2ccccc2-c2nc3ccccc3n21 (configuration not stated)
inactive: SF-268 > 100 µM | SW-620 > 100 µM | PC-3 44.3 µM | A549 52.7 µM | BT-549 > 100 µM | LOX IMVI > 100 µM | U-251 > 100 µM | MOLT-4 > 100 µM | UO-31 > 100 µM | SK-MEL-2 39.3 µM | MDA-MB-435 > 100 µM | K562 > 100 µM | NCI-H460 65.8 µM | OVCAR-5 > 100 µM | SNB-75 > 100 µM | CAKI-1 > 100 µM | SN12C > 100 µM | HL-60 58.9 µM | HOP-92 > 100 µM
